{"source": "patent US11926629B1", "about": "“Pyrido[3′,4′:4,5]pyrrolo[2,3-c]isoquinoline compounds as CK2 inhibitors” (KING FAISAL UNIVERSITY, priority 2023, dated 2024)", "key": {"[1]": {"tested_on": "HCT116 (colon)", "assay": "In vitro cytotoxic activity (MTT) assay, HCT116", "assay_type": "cell-based", "details": "Homo sapiens, HCT-116; HCT116 (colon) cells, exposed for 96 hours; read-out: IC50, 50% inhibition of cell proliferation", "method": "(§1) Compounds 1-15 were screened for their in vitro cytotoxic activity utilizing a 3-(4,5-dimethyl-thiazol-2-yl)-2,5-diphenyltetrazolium bromide (MTT) assay against selected cancer human cell lines consisting of PC3 (prostate). HCT116 (colon), A375 (melanoma), H1299 (lung). MIAPaCa-2 (pancreas), HL60 (leukemia). MCF7 (breast), MDA-MB-231 (breast) (T. Mosmann, J. Immunol. Meth., 1983, 65, 55-63). The cells were cultured at 37° C. in RMPI1640 medium supplemented with 10% fetal bovine serum, 50 IU/mL penicillin, and 50 μg/mL streptomycin in a 5% CO2 incubator. All cells were sub-cultured 3 times/week by trypsinisation. Viable cells were seeded and allowed to adhere for 12 h before a test drug was added in 96-well plates at an initial density of 1.0×10^5 cells/mL. Tumour cell lines were separately exposed to various concentrations of the tested compounds followed by incubation at a temperature of 37° C. during 96 h inside a medium of fresh RMPI 1640. Cells were subsequently incubated at 37° C. using MTT at 0.5 mg/mL during 4 h. After removal of supernatant, formazan crystals were dissolved in isopropanol and the optical density was measured at 570 nm. CX-4945 was used as a positive control."}, "[2]": {"tested_on": "A375 (melanoma)", "assay": "In vitro cytotoxic activity (MTT) assay, A375", "assay_type": "cell-based", "details": "Homo sapiens, A-375; A375 (melanoma) cells, exposed for 96 hours; read-out: IC50, 50% inhibition of cell proliferation", "method": "as §1"}, "[3]": {"tested_on": "H1299 (lung)", "assay": "In vitro cytotoxic activity (MTT) assay, H1299", "assay_type": "cell-based", "details": "Homo sapiens, NCI-H1299; H1299 (lung) cells, exposed for 96 hours; read-out: IC50, 50% inhibition of cell proliferation", "method": "as §1"}, "[4]": {"tested_on": "PC3 (prostate)", "assay": "In vitro cytotoxic activity (MTT) assay, PC3", "assay_type": "cell-based", "details": "Homo sapiens, Prostate cell; PC3 (prostate) cells, exposed for 96 hours; read-out: IC50, 50% inhibition of cell proliferation", "method": "as §1"}, "[5]": {"tested_on": "MIAPaCa-2 (pancreas)", "assay": "In vitro cytotoxic activity (MTT) assay, MIAPaCa-2", "assay_type": "cell-based", "details": "Homo sapiens, MIA PaCa-2; MIAPaCa-2 (pancreas) cells, exposed for 96 hours; read-out: IC50, 50% inhibition of cell proliferation", "method": "as §1"}, "[6]": {"tested_on": "HL60 (leukemia)", "assay": "In vitro cytotoxic activity (MTT) assay, HL60", "assay_type": "cell-based", "details": "Homo sapiens, HL-60; HL60 (leukemia) cells, exposed for 96 hours; read-out: IC50, 50% inhibition of cell proliferation", "method": "as §1"}, "[7]": {"target": "T1, recombinant human CK2 (RRββ-holoenzyme) (Homo sapiens, UniProt P68400)", "T1 construct": "purchased Millipore", "T1 sequence (P68400 whole entry)": "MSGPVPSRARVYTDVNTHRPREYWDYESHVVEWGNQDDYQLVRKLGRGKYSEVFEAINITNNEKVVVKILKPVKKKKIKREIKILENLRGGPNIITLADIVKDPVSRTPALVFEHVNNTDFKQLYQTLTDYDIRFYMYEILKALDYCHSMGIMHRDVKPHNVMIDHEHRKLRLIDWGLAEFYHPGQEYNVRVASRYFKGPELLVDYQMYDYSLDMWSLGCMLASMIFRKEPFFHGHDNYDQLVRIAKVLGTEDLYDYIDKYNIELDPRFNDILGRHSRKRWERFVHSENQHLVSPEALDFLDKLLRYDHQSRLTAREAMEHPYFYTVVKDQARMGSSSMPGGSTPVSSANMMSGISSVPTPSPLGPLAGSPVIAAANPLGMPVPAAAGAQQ", "T1 sequence (P67870 whole entry partner)": "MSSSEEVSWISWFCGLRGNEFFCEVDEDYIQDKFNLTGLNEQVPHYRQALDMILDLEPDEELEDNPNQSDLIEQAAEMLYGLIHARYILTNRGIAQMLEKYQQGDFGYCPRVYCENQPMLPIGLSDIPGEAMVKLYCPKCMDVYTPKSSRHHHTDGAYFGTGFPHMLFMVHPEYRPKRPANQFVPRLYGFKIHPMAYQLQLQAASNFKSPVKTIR", "assay": "CK2 Kinase Assay", "assay_type": "biochemical", "details": "final ATP concentration 15 μM, 10 min at 30° C.; read-out: IC50 protein kinase CK2 activity", "method": "CK2 Kinase Assay was conducted using the protocol as described in Pierre F. et al; J. Med. Chem. 2011, 54, 635-654. The tested compounds in aqueous solution were added at a volume of 10 μL to a reaction mixture comprising 10 μL of assay dilution buffer (ADB; 20 mM MOPS, pH 7.2, 25 mM β-glycerol phosphate, 5 mM EGTA, 1 mM sodium orthovanadate, and 1 mM dithiothreitol), 10 μL of substrate peptide (RRRDDDSDDD, dissolved in ADB at a concentration of 1 mM), 10 μL of recombinant human CK2 (RRββ-holoenzyme, 25 ng dissolved in ADB; Millipore). Reactions were initiated by the addition of 10 μL of ATP solution (90% 75 mMMgCl2, 75 μM ATP (final ATP concentration:15 μM) dissolved in ADB; 10% [γ-33P] ATP (stock 1 mCi/100 μL; 3000 Ci/mmol (Perkin-Elmer) and maintained for 10 min at 30° C. The reactions were quenched with 100 μL of 0.75% phosphoric acid and then transferred to and filtered through a phosphor cellulose filter plate (Millipore). After washing each well five times with 0.75% phosphoric acid, the plate was dried under vacuum for 5 min and, following the addition of 15 μL of scintillation fluid to each well, the residual radioactivity was measured using a Wallac luminescence counter. The IC50 values were derived from eight concentrations of test inhibitors."}, "[8]": {"tested_on": "MDA-MB-231 (breast)", "assay": "In vitro cytotoxic activity (MTT) assay, MDA-MB-231", "assay_type": "cell-based", "details": "Homo sapiens; MDA-MB-231 (breast) cells, exposed for 96 hours; read-out: IC50, 50% inhibition of cell proliferation", "method": "as §1"}, "[9]": {"tested_on": "MCF7 (breast)", "assay": "In vitro cytotoxic activity (MTT) assay, MCF7", "assay_type": "cell-based", "details": "Homo sapiens; MCF7 (breast) cells, exposed for 96 hours; read-out: IC50, 50% inhibition of cell proliferation", "method": "as §1"}}, "note": "pIC50: −log10 of the molar value."}
{"compound": "O=C(O)c1ccc2c(c1)c(Nc1cccc(Cl)c1)nc1[nH]c3ccncc3c12", "note": "[Compound 1, 5-((3-chlorophenyl)amino)-7H-pyrido[3′,4′:4,5]pyrrolo[2,3-c]isoquinoline-3-carboxylic acid]", "values": [{"measurement": "pIC50", "setting": "[1]", "result": 5.70}, {"measurement": "pIC50", "setting": "[2]", "result": 5.48}, {"measurement": "pIC50", "setting": "[3]", "result": 6.05}, {"measurement": "pIC50", "setting": "[4]", "result": 5.96}, {"measurement": "pIC50", "setting": "[5]", "result": 5.92}, {"measurement": "pIC50", "setting": "[6]", "result": 5.37}, {"measurement": "pIC50", "setting": "[7]", "result": 7.07}, {"measurement": "pIC50", "setting": "[8]", "result": 5.36}, {"measurement": "pIC50", "setting": "[9]", "result": 5.44}]}
